This is an account of results in PubChem BioAssay AID1963442 (Molecular Pharmacology Branch, DTP, NCI, 2024).

For orientation: viability, T/C means the result in the treated group divided by that in the control group, in per cent. As usually defined, the IC50 is the concentration needed to halve the response being measured.

The test system of this assay is MPNST complex spheroid with HUVEC/MSC, growth, % test/control. Put plainly: Anticancer human tumor MPNST cell line growth inhibition [Asc].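 On all read-outs here: compounds left on spheroids for seven days before reading.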 The following applies: for viability, T/C: stronger effect = lower value. Here is the method:
Multicellular complex tumor spheroid response to apoptosis pathway targeting inhibitors Alrizomadlin, Pelcitoclax, and Dasminapant in combination with a variety of drugs and investigational agents in selected tumor cell lines
The MDM2 inhibitor alrizomadlin, the Bcl-2/Bcl-xL inhibitor pelcitoclax, and the IAPs inhibitor dasminapant were evaluated both individually and in combination with standard of care and investigational anticancer small molecules within a complex spheroid model of solid tumors. . Complex spheroids include a stromal component modeled by human endothelial cells (HUVEC) and fibroblasts modeled by human mesenchymal stem cells (MSCs). The concentration ranges selected for each drug and investigational agent were based upon clinically achievable concentrations if the clinical Cmax of the agent was known.
Compounds. The drugs and investigational agents: alrizomadlin (APG-115; NSC831270), pelcitoclax (APG-1252; NSC835773), dasminapant (APG-1387;NSC834197), TAK-243 (NSC785004), copanlisib (NSC809693), olaparib (NSC753686), talazoparib (NSC767125), cobimetinib (NSC 768068), eltanexor (KPT-8602, NSC 794443), abemaciclib (NSC 768073), sotorasib (NSC818433), adagrasib (NSC 831453), MRTX-1133 (NSC 836407), Iadademestat (ORY1001, NSC 806812), and RMC-4630 (NSC839698), were obtained from the NCI Developmental Therapeutics Program Chemical Repository. The FDA-approved anticancer drug set is available from the Developmental Therapeutics Program at https://dtp.cancer.gov/organization/dscb/obtaining/available plates.htm. […] The stock solutions were prepared in dimethyl sulfoxide (DMSO, Sigma-Aldrich, St. Louis, MO, cat. D2650) at 800-fold the tested concentration and stored at -70 degrees C prior to their use. All drugs and investigational agents were tested over a range starting from a high concentration at or near the clinical Cmax and decreasing in half-log increments. If the clinical Cmax for an agent had not been determined, the highest concentration tested was 10 microM.
The patient-derived cancer (PDC) cell lines include five colon adenocarcinomas: 186277-243-T-J2-PDC, 616215-338-R-J1-PDC, 439559-082-T-J2-PDC, 463943-066-T-J2-PDC, and 519858-162-T-J1-PDC; three pancreatic carcinomas: 323965-272-R-J2-PDC, 521955-158-R6-J3-PDC, and 521955-158-R2-J5-PDC; two uterine sarcomas: 327498-152-R-J2-PDC and 993429-296-R-J1-PDC; two rhabdomyosarcomas: 755483-174-R-J1-PDC and 772245-204-R-J1-PDC; two soft tissue sarcomas: 126254-015-R-J1-PDC and 494315-158-R-J1-PDC; two malignant fibrous histiocytomas: 317291-083-R-J1-PDC and 596521-263-R-J1-PDC; two breast carcinomas: 171881-019-R-J1-PDC and 885512-296-R-J2-PDC; and one ovarian carcinoma: 6556581-035-R-J-PDC were obtained from the NCI PDMR, (https://pdmr.cancer.gov). The established cell lines HSSY-2 synovial sarcoma (RRID:CVCL 8719), SYO-1 synovial sarcoma (RRID:CVCL_7146), MPNST malignant peripheral neural sheath tumor were obtained from the Sloan Kettering Institute. The following established cell lines were purchased from the American Type Culture Collection (ATCC, Manassas, VA), Sor the received from the NCI repository:, PANC-1 pancreatic carcinoma (CRL-1469, RRID:CVCL_0480), OVCAR-5 ovarian carcinoma (RRID:CVCL_1628), OVCAR-8 ovarian carcinoma (RRID:CVCL_1629), , MCF-7 breast carcinoma (CRL-12584, RRID:CVCL_0031), MDA-MB-231 breast carcinoma (CRL-12532, RRID:CVCL_0062), NCI-H1876 small cell lung carcinoma (CRL-5902, RRID:CVCL_1503), NCI-H510A small cell lung carcinoma (HTB-184, RRID:CVCL_1565), NCI-H1417 (CRL-5869, RRID:CVCL_1469), and NCI-H196 small cell lung carcinoma (CRL-5823, RRID:CVCL_1509). Dr. Peter Houghton (Greehey Children's Cancer Research Institute, University of Texas Health Science Center, San Antonio, TX) provided Rh-18 rhabdomyosarcoma (RRID:CVCL_1659). Pooled donor human umbilical vein endothelial cells (HUVEC, Lonza, cat. CC-2519) and human mesenchymal stem cells (hMSC, Lonza, cat. PT-2501) were purchased from Lonza (Walkersville, MD).
Cell Culture. […]

“And” between values parts separate entries of the source, which are not always exact repeats. Equal values may be shown once.

`O=C(c1cc(Cc2n[nH]c(=O)c3ccccc23)ccc1F)N1CCN(C(=O)C2CC2)CC1`: the viability, T/C was 89.3% and 114% and 79.2% (compound 0.0316 µM); 103% and 78.6% and 69.5% (compound 0.1 µM); 109% and 60.3% and 96.9% (compound 0.316 µM); 83.9% and 63.7% and 82.7% (compound 1 µM); 71.8% and 70.9% and 40.7% (compound 3.16 µM); 77.1% and 48.1% and 34.8% (compound 10 µM). For the same compound, under “curve of compound”, the IC50 was > 10 µM and 2.44 µM.
For the compound `C=C(F)C(=O)N1CCN(c2nc(OCC3CCCN3C)nc3c2CCN(c2cccc4cccc(Cl)c24)C3)CC1CC#N` (stereo not drawn), the viability, T/C runs as follows: (compound 0.0316 µM) 65.6% and 93.2% and 99.3%; (compound 0.1 µM) 75% and 68.3% and 86.5%; (compound 0.316 µM) 90.8% and 73% and 75.3%; (compound 1 µM) 85% and 68.2% and 94.8%; (compound 3.16 µM) 48.5% and 60.2% and 82.2%. The IC50 (curve of compound) was 2.99 µM and > 10 µM.
Turning to `O=C(c1ccc(F)c(F)c1Nc1ccc(I)cc1F)N1CC(O)([C@@H]2CCCCN2)C1` + Cc1c(S(C)(=O)=O)c(-c2cc(F)cc(N3CCN(c4ccc(NS(=O)(=O)c5ccc(NC(CCN6CCC(C(=O)OCCCP(=O)(O)O)CC6)CSc6ccccc6)c(S(=O)(=O)C(F)(F)F)c5)cc4)CC3)c2)c(-c2ccc(Cl)cc2)n1C(C)C, the IC50 worked out at 0.303 µM (curve of first compound, second compound 0.1 µM); 0.336 µM (curve of first compound, second compound 0.316 µM); 0.259 µM (curve of first compound, second compound 1 µM); 0.24 µM (curve of first compound, second compound 3.16 µM); 0.181 µM (curve of first compound, second compound 10 µM). Moreover, the viability, T/C is, setting by setting: (second compound 0.1 µM, first compound 0.00316 µM) 62.2%; (second compound 0.1 µM, first compound 0.01 µM) 69.7%; (second compound 0.1 µM, first compound 0.0316 µM) 77.1%; (second compound 0.1 µM, first compound 0.1 µM) 95.3%; (second compound 0.1 µM, first compound 0.316 µM) 49%; (second compound 0.1 µM, first compound 1 µM) 22.4%. In addition, the viability, T/C (second compound 0.316 µM, first compound 0.00316 µM) is 83%; the viability, T/C (second compound 0.316 µM, first compound 0.01 µM) was 80.3%; the viability, T/C (second compound 0.316 µM, first compound 0.0316 µM) is 107%; the viability, T/C (second compound 0.316 µM, first compound 0.1 µM) was 106%; the viability, T/C (second compound 0.316 µM, first compound 0.316 µM) was 51.9%; the viability, T/C (second compound 0.316 µM, first compound 1 µM) is 16.5%. Also, the viability, T/C runs as follows: (second compound 1 µM, first compound 0.00316 µM) 82.9%; (second compound 1 µM, first compound 0.01 µM) 80.6%; (second compound 1 µM, first compound 0.0316 µM) 106%; (second compound 1 µM, first compound 0.1 µM) 77%; (second compound 1 µM, first compound 0.316 µM) 44.3%; (second compound 1 µM, first compound 1 µM) 13.2%. Moreover, the viability, T/C is 86.2% (second compound 3.16 µM, first compound 0.00316 µM); 90.3% (second compound 3.16 µM, first compound 0.01 µM); 80.7% (second compound 3.16 µM, first compound 0.0316 µM); 110% (second compound 3.16 µM, first compound 0.1 µM); 36.6% (second compound 3.16 µM, first compound 0.316 µM); 14.5% (second compound 3.16 µM, first compound 1 µM). Besides, the viability, T/C was 86.3% (second compound 10 µM, first compound 0.00316 µM); 81.9% (second compound 10 µM, first compound 0.01 µM); 82.5% (second compound 10 µM, first compound 0.0316 µM); 72.8% (second compound 10 µM, first compound 0.1 µM); 28.8% (second compound 10 µM, first compound 0.316 µM); 8.55% (second compound 10 µM, first compound 1 µM).
